Test results taken from the CheMixHub viscosity set.

Assay: xn = mol fraction of the nth substance listed

COc1ccccc1 + CO
Settings | viscosity [mPa·s]
298.15 K, 101 kPa, x1 = 0.0501 | 0.586
298.15 K, 101 kPa, x1 = 0.1098 | 0.623
298.15 K, 101 kPa, x1 = 0.1821 | 0.662
298.15 K, 101 kPa, x1 = 0.2706 | 0.707
298.15 K, 101 kPa, x1 = 0.3822 | 0.756
298.15 K, 101 kPa, x1 = 0.5271 | 0.809
298.15 K, 101 kPa, x1 = 0.7214 | 0.886
298.15 K, 101.33 kPa, x1 = 0.1024 | 0.6111
298.15 K, 101.33 kPa, x1 = 0.2039 | 0.67
298.15 K, 101.33 kPa, x1 = 0.2982 | 0.7131
298.15 K, 101.33 kPa, x1 = 0.4027 | 0.7591
298.15 K, 101.33 kPa, x1 = 0.4998 | 0.8009
298.15 K, 101.33 kPa, x1 = 0.5991 | 0.8271
298.15 K, 101.33 kPa, x1 = 0.7068 | 0.8651
298.15 K, 101.33 kPa, x1 = 0.8061 | 0.8975
298.15 K, 101.33 kPa, x1 = 0.9023 | 0.9373
303 K, 101.3 kPa, x1 = 0.0499 | 0.5675
303 K, 101.3 kPa, x1 = 0.1091 | 0.6038
303 K, 101.3 kPa, x1 = 0.2686 | 0.6883
303 K, 101.3 kPa, x1 = 0.5242 | 0.7935
303 K, 101.3 kPa, x1 = 0.7199 | 0.8751
303.15 K, 101.33 kPa, x1 = 0.1024 | 0.574
303.15 K, 101.33 kPa, x1 = 0.2039 | 0.6257
303.15 K, 101.33 kPa, x1 = 0.2982 | 0.6672
303.15 K, 101.33 kPa, x1 = 0.4027 | 0.7035
303.15 K, 101.33 kPa, x1 = 0.4998 | 0.7455
303.15 K, 101.33 kPa, x1 = 0.5991 | 0.7718
303.15 K, 101.33 kPa, x1 = 0.7068 | 0.8059
303.15 K, 101.33 kPa, x1 = 0.8061 | 0.8374
303.15 K, 101.33 kPa, x1 = 0.9023 | 0.8779
308.15 K, 101.33 kPa, x1 = 0.1024 | 0.5506
308.15 K, 101.33 kPa, x1 = 0.2039 | 0.5983
308.15 K, 101.33 kPa, x1 = 0.2982 | 0.638
308.15 K, 101.33 kPa, x1 = 0.4027 | 0.6731
308.15 K, 101.33 kPa, x1 = 0.4998 | 0.7065
308.15 K, 101.33 kPa, x1 = 0.5991 | 0.735
308.15 K, 101.33 kPa, x1 = 0.7068 | 0.7683
308.15 K, 101.33 kPa, x1 = 0.8061 | 0.7978
308.15 K, 101.33 kPa, x1 = 0.9023 | 0.8373
313.15 K, 101.33 kPa, x1 = 0.1024 | 0.4934
313.15 K, 101.33 kPa, x1 = 0.2039 | 0.5372
313.15 K, 101.33 kPa, x1 = 0.2982 | 0.5706
313.15 K, 101.33 kPa, x1 = 0.4027 | 0.6023
313.15 K, 101.33 kPa, x1 = 0.4998 | 0.6345
313.15 K, 101.33 kPa, x1 = 0.5991 | 0.6601
313.15 K, 101.33 kPa, x1 = 0.7068 | 0.6865
313.15 K, 101.33 kPa, x1 = 0.8061 | 0.7174
313.15 K, 101.33 kPa, x1 = 0.9023 | 0.751

CC1COC(=O)O1 (stereo not given) + COC(=O)OC
298.15 K, 101.3 kPa
Settings | viscosity [mPa·s]
x2 = 0.0944 | 2.217
x2 = 0.1815 | 1.965
x2 = 0.3215 | 1.618
x2 = 0.4861 | 1.287
x2 = 0.5752 | 1.138
x2 = 0.6827 | 0.98
x2 = 0.7254 | 0.924
x2 = 0.7801 | 0.856
x2 = 0.9012 | 0.724

Brc1ccc2[n-]cnc2c1.CCCCCCCCCCCCCC[P+](CCCCCC)(CCCCCC)CCCCCC + COCCOCCOCCOCCOC
viscosity [mPa·s], 100 kPa
Settings | 293.15 K | 298.15 K | 303.15 K | 308.15 K | 313.15 K | 318.15 K | 323.15 K
x1 = 0.362 | 62 | – | – | – | – | – | –
x1 = 0.522 | 164 | 125 | 98 | 77 | 63 | 51 | –
x1 = 0.654 | 301 | 222 | 167 | 129 | 101 | 81 | 66
x1 = 0.782 | 631 | 449 | 326 | 243 | 185 | 143 | 114
x1 = 0.862 | 972 | 675 | 481 | 351 | 261 | 199 | 155
x1 = 0.898 | 1190 | 813 | 572 | 413 | 304 | 230 | 177

CC1COC(=O)O1 (stereo not given) + CS(C)=O
308.15 K, 101 kPa
Settings | viscosity [mPa·s]
x2 = 0.0506 | 2.025
x2 = 0.1139 | 1.973
x2 = 0.2014 | 1.907
x2 = 0.2976 | 1.842
x2 = 0.382 | 1.794
x2 = 0.4759 | 1.746
x2 = 0.5376 | 1.719
x2 = 0.6343 | 1.684
x2 = 0.7176 | 1.659
x2 = 0.7898 | 1.645
x2 = 0.8643 | 1.64
x2 = 0.9376 | 1.639

CCOCCn1cc[n+](CCC#N)c1.O=S(=O)([N-]S(=O)(=O)C(F)(F)F)C(F)(F)F + CS(C)=O
Settings | viscosity [mPa·s]
303.15 K, 101.33 kPa, x1 = 0.7207 | 40.65

COc1ccccc1 + CS(C)=O
viscosity [mPa·s], 101.3 kPa
Settings | x2 = 0.1034 | x2 = 0.203 | x2 = 0.3049 | x2 = 0.4058 | x2 = 0.5049 | x2 = 0.6063 | x2 = 0.7044 | x2 = 0.8039 | x2 = 0.9011
298.15 K | 1.049 | 1.113 | 1.184 | 1.259 | 1.342 | 1.443 | 1.544 | 1.666 | 1.808
303.15 K | 0.968 | 1.024 | 1.104 | – | 1.229 | 1.32 | 1.408 | 1.517 | 1.641
308.15 K | 0.899 | 0.949 | 1.008 | 1.068 | 1.133 | 1.214 | 1.292 | 1.388 | 1.5

Cc1ccc(S(=O)(=O)O)cc1 + C[N+](C)(C)Cc1ccccc1.[Cl-]
Settings | viscosity [mPa·s]
298 K, 101 kPa, x2 = 0.3 | 12850

c1ccc2ccccc2c1 + Cc1ccc(C)cc1
viscosity [mPa·s], 101.3 kPa
Settings | x1 = 0.00437 | x1 = 0.00869 | x1 = 0.01249 | x1 = 0.01685 | x1 = 0.01712 | x1 = 0.01715 | x1 = 0.01815 | x1 = 0.02139 | x1 = 0.02569 | x1 = 0.02979
293.15 K | 0.6371 | 0.6386 | 0.6414 | – | – | – | 0.6438 | 0.6483 | 0.65 | 0.6534
298.15 K | 0.5968 | 0.5992 | 0.6012 | – | – | 0.6045 | – | 0.6076 | 0.6102 | 0.6125
313.15 K | 0.5333 | 0.5352 | 0.5363 | – | 0.5405 | – | – | 0.5431 | 0.5447 | 0.5469
323.15 K | 0.476 | 0.4777 | 0.4789 | 0.4818 | – | – | – | 0.4848 | 0.4862 | 0.4879
